We go through five compounds from PubChem BioAssay AID1845207 (Molecular Pharmacology Branch, DTP, NCI, 2023).

Molecules are shown by their SMILES. Several values for one entry are separate records, joined by “and”; a condition that tells them apart may be missing. Equal entries are not always repeated.

The test system of the assay is NCI-H1876 tumor spheroid viability. Description: Anticancer human tumor NCI-H1876 cell line growth inhibition.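 On all read-outs here: spheroids exposed to compounds for seven days before the viability read.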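 On viability, T/C: percent of DMSO vehicle control viability so 100% = vehicle.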 The conditions noted are these: spheroids with HUVEC and MSC; for viability, T/C: stronger effect = lower value. Summed up:
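Single agents and combinations were tested on spheroids built from tumor cells plus HUVEC and hMSC, at half-log dilutions starting at or near clinical Cmax, else 10 microM; final DMSO 0.25% (v/v).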

The mark [1] stands for this setting: curve of first compound, second compound 0.003 µM.

For `COc1ccc([C@@H](O)c2cc(-c3ncnc4cc(N5CCOCC5)ccc34)c(F)cc2Cl)nn1` + CC[C@@]1(O)C(=O)OCc2c1cc1n(c2=O)Cc2cc3c(CN(C)C)c(O)ccc3nc2-1, the IC50 by setting is: under setting [1], 1650 nM; (curve of first compound, second compound 0.00949 µM) below 31.6 nM; (curve of first compound, second compound 0.03 µM) below 31.6 nM; (curve of first compound, second compound 0.0949 µM) below 31.6 nM; (curve of first compound, second compound 0.3 µM) below 31.6 nM. In addition, the viability, T/C is 88.7% (second compound 0.003 µM, first compound 0.0316 µM); 83.7% (second compound 0.003 µM, first compound 0.1 µM); 85.3% (second compound 0.003 µM, first compound 0.316 µM); 67.1% (second compound 0.003 µM, first compound 1 µM); 27.6% (second compound 0.003 µM, first compound 3.16 µM); 10.9% (second compound 0.003 µM, first compound 10 µM). Also, the viability, T/C is 15.9% (second compound 0.00949 µM, first compound 0.0316 µM); 15.2% (second compound 0.00949 µM, first compound 0.1 µM); 17.8% (second compound 0.00949 µM, first compound 0.316 µM); 12.2% (second compound 0.00949 µM, first compound 1 µM); 8.75% (second compound 0.00949 µM, first compound 3.16 µM); 5.67% (second compound 0.00949 µM, first compound 10 µM). Besides, the viability, T/C was 3.61% (second compound 0.03 µM, first compound 0.0316 µM); 6.14% (second compound 0.03 µM, first compound 0.1 µM); 3.33% (second compound 0.03 µM, first compound 0.316 µM); 3.01% (second compound 0.03 µM, first compound 1 µM); 2.56% (second compound 0.03 µM, first compound 3.16 µM); 2.82% (second compound 0.03 µM, first compound 10 µM). Also, the viability, T/C is 2.02% (second compound 0.0949 µM, first compound 0.0316 µM); 2.62% (second compound 0.0949 µM, first compound 0.1 µM); 2.15% (second compound 0.0949 µM, first compound 0.316 µM); 2.18% (second compound 0.0949 µM, first compound 1 µM); 1.69% (second compound 0.0949 µM, first compound 3.16 µM); 2.92% (second compound 0.0949 µM, first compound 10 µM). The viability, T/C is 1.88% (second compound 0.3 µM, first compound 0.0316 µM); 1.98% (second compound 0.3 µM, first compound 0.1 µM); 1.62% (second compound 0.3 µM, first compound 0.316 µM); 1.27% (second compound 0.3 µM, first compound 1 µM); 1.46% (second compound 0.3 µM, first compound 3.16 µM); 1.93% (second compound 0.3 µM, first compound 10 µM).

Take `O=C(c1cc(Cc2n[nH]c(=O)c3ccccc23)ccc1F)N1CCN(C(=O)C2CC2)CC1`: the viability, T/C was 87% and 103% and 107% (compound 0.0949 µM); 76% and 89.7% and 106% (compound 0.3 µM); 84.4% and 76.2% and 100% (compound 0.949 µM); 72.1% and 55.2% and 76.5% (compound 3 µM); 64% and 33.9% and 18.2% (compound 9.49 µM); 66.7% and 19.1% and 12.6% (compound 30 µM). For the same compound, the IC50 (curve of compound) is > 30000 nM and 3960 nM and 5070 nM.

As to `[2H]c1nc(C)nc([2H])c1-c1cc(NC[C@@H](C)c2cccc3c(C(=O)NC)ccnc23)ncn1`, the viability, T/C was 102% and 103% and 99.3% (compound 0.0316 µM); 107% and 55.1% and 102% (compound 0.1 µM); 99.8% and 70.6% and 102% (compound 0.316 µM); 102% and 101% and 99.3% (compound 1 µM); 102% and 90.8% and 97.4% (compound 3.16 µM); 96.6% and 71% and 95% (compound 10 µM). For the same compound, the IC50 (curve of compound) was above 10000 nM.

Turning to `COc1cc2c(cc1O)CCNC21CSC2c3c(OC(C)=O)c(C)c4c(c3C(COC1=O)N1C(O)C3Cc5cc(C)c(OC)c(O)c5C(C21)N3C)OCO4` (centres undefined), the viability, T/C reads like this: (compound 30 pM) 102% [middle of 10 runs]; (compound 94.9 pM) 90.2% [middle of 10 runs]; (compound 0.000949 µM) 2.68% [middle of 10 runs]; (compound 0.003 µM) 0.78% [middle of 10 runs]. Further, under “compound alone, run of 12/16/2019”, the IC50 was 0.197 nM [middle of 10 runs].

Take `O=C(c1cc(Cc2n[nH]c(=O)c3ccccc23)ccc1F)N1CCN(C(=O)C2CC2)CC1` + COc1cc2c(cc1O)CCNC21CSC2c3c(OC(C)=O)c(C)c4c(c3C(COC1=O)N1C(O)C3Cc5cc(C)c(OC)c(O)c5C(C21)N3C)OCO4: the IC50 (curve of first compound, second compound 30 pM) was 3300 nM; the IC50 (curve of first compound, second compound 94.9 pM) came to 1900 nM; the IC50 (curve of first compound, second compound 0.0003 µM) was below 94.9 nM; the IC50 (curve of first compound, second compound 0.000949 µM) was below 94.9 nM; the IC50 under setting [1] is below 94.9 nM. The viability, T/C is, setting by setting: (second compound 30 pM, first compound 0.0949 µM) 99.7%; (second compound 30 pM, first compound 0.3 µM) 98.4%; (second compound 30 pM, first compound 0.949 µM) 92.7%; (second compound 30 pM, first compound 3 µM) 53.4%; (second compound 30 pM, first compound 9.49 µM) 14.2%; (second compound 30 pM, first compound 30 µM) 9.96%. Further, the viability, T/C is 85.8% (second compound 94.9 pM, first compound 0.0949 µM); 82.7% (second compound 94.9 pM, first compound 0.3 µM); 70.5% (second compound 94.9 pM, first compound 0.949 µM); 37.2% (second compound 94.9 pM, first compound 3 µM); 7.9% (second compound 94.9 pM, first compound 9.49 µM); 7.02% (second compound 94.9 pM, first compound 30 µM). Further, the viability, T/C is 15.1% (second compound 0.0003 µM, first compound 0.0949 µM); 16.9% (second compound 0.0003 µM, first compound 0.3 µM); 12.9% (second compound 0.0003 µM, first compound 0.949 µM); 7.99% (second compound 0.0003 µM, first compound 3 µM); 5.74% (second compound 0.0003 µM, first compound 9.49 µM); 4.63% (second compound 0.0003 µM, first compound 30 µM). Further, the viability, T/C was 2.17% (second compound 0.000949 µM, first compound 0.0949 µM); 2.25% (second compound 0.000949 µM, first compound 0.3 µM); 2.87% (second compound 0.000949 µM, first compound 0.949 µM); 2.49% (second compound 0.000949 µM, first compound 3 µM); 2.27% (second compound 0.000949 µM, first compound 9.49 µM); 2.54% (second compound 0.000949 µM, first compound 30 µM). The viability, T/C runs as follows: (second compound 0.003 µM, first compound 0.0949 µM) 6.83%; (second compound 0.003 µM, first compound 0.3 µM) 0.52%; (second compound 0.003 µM, first compound 0.949 µM) 0.47%; (second compound 0.003 µM, first compound 3 µM) 0.53%; (second compound 0.003 µM, first compound 9.49 µM) 0.55%; (second compound 0.003 µM, first compound 30 µM) 0.95%.
